Source: patent US20250375450A1, “SMARCA2/4 INHIBITION AS A STRATEGY TO TREAT TUMORS THAT HARBOR ABERRANT BAF ASSEMBLIES” (BOARD OF REGENTS, THE UNIVERSITY OF TEXAS SYSTEM, priority 2022, published 2025)
Entries after “also recorded” stand apart in the source; their conditions may differ.

Tests used:
Format in all cases: cell-based
endometrial cancer cells = assay: Growth/killing of endometrial cancer cells; settings: dose-dependent
Procedure: (§1) Proliferation of adherent cells was determined on the IncuCyte live-cell imaging system (Essen BioScience). Cells were seeded on clear bottom 96 well plates at a seeding density of 2000 cells/well. Cells were allowed to attach overnight after which the medium was replaced with fresh medium containing serial dilutions (2×) of the compound or DMSO control. Percent confluence was calculated by the IncuCyte software from four different images per well from at least three replicate wells. For non-adherent cells, the 96-well plates were coated with poly-L-lysine before seeding to facilitate cell adhesion. At the end of the assay, dose-dependent cell viability was determined by staining the cells with PrestoBlue (Invitrogen, A13261) as per manufacturer's instructions and IC50 was calculated (FIG. 10).
(§2) Referring to FIG. 10A, AT-301 kills a variety of cancer cells (brain tumors, rhabdomyosarcoma, nonsmall cell lung cancer, leukemia, and Ewing's Sarcoma. We also tested whether AT-301 can kill cells representing gynecological cancers (ovarian and endometrial cancer). As shown in FIG. 10B-C, AT-301 kills a variety of ovarian and endometrial cancer cells.

Ewing Sarcoma cell lines = assay: Growth of Ewing Sarcoma cell lines, live cell imaging (Incucyte S3) confluency
Procedure: Briefly, human SMARCA2 was purified, and a high-throughput screen (HTS) of 40,000 compounds was conducted. […] In brief, cells were grown in RPMI media supplemented with 10% Fetal bovine serum (FBS), 1× penicillin, and streptomycin antibiotics. Cells were placed in an incubator with 5% C02 and 50% humidity. When cells reached 90% confluency, cells were harvested, washed twice in 1×PBS, counted using trypan blue exclusion method. Then cells were seeded in 96-well plates (duplicates, n=2) at the density of 20,000 cells per well. Allowed them to attach to the bottom of the well for 1 to 2 hrs and treated with different concentration of AT-301 compound starting at highest concentration of 10 micromolar to serial dilution of the compound to the lowest concentration of 0.039 micromolar. Cells treated with only DMSO were also included as negative control. Cells were monitored for 72 hrs. by live cell imaging method (Incucyte S3) taking images every two hours. The confluency was determined and plotted against time (hours) by using Prism software.

DAOY = assay: Cell proliferation assay and IC50 measurement (PrestoBlue); settings: Homo sapiens, PrestoBlue cell viability
Procedure: (§3) FIG. 10A-C show representative data illustrating that AT-301 kills Ewing's, RMS, GBM, AML, and other cancer cells. Cell lines were treated with serial dilutions (2×) of AT-301, and IC50 values of each cell line were determined using PrestoBlue dye for cell viability following manufacturer's protocol (Invitrogen, A13261). See also Table 3.
(§4) DAOY, D556 cells: EMEM, 10% FBS, Penicillin (100 units/mL) and streptomycin (100 μg/mL) in the presence of 5% CO2.
as §1

D556 = assay: as above; settings: PrestoBlue cell viability
Procedure: as §3, §4, §1

ovarian cancer cells = assay: Growth/killing of ovarian cancer cells; settings: dose-dependent
Procedure: as §1, §2

IC50 (Ewing Sarcoma cell lines; 8 different Ewing Sarcoma cell lines, 72 hrs live cell imaging): ~5 µM
SMILES: Clc1ccc(CNc2nc(NC3CCCC3)nc3ccccc23)cc1Cl [AT-301, N^2-cyclopentyl-N^4-(3,4-dichlorobenzyl)quinazoline-2,4-diamine]
Growth/killing of endometrial cancer cells (endometrial cancer cells): kills; also recorded: inhibits the growth
Growth of Ewing Sarcoma cell lines (Ewing Sarcoma cell lines; live cell imaging, confluency): attenuate the growth; also recorded: strongly attenuated the growth
IC50 (DAOY): 4.19 µM
IC50 (D556): 3.02 µM
Growth/killing of ovarian cancer cells (ovarian cancer cells): kills; also recorded: inhibits the growth
